Assay results published in publication PMC10628124, “Elevator-like movements of prestin mediate outer hair cell electromotility” (Nature Communications, 2023).

What was measured:
Assay type in all cases: cell-based
zPres [1] = biological target: T1, zPres (Danio rerio, UniProt Q7T2C4, R505K, form not given); experiment: whole-cell patch clamp, oxalate-chloride counter-transport current, CHO cells; conditions: 106 mM intracellular oxalate; extracellular chloride; current at 0 mV; GFP fusion
T1 construct: gene slc26a5; full length; C-terminal GFP fusion in CHO cells (pEGFP-N1); in Xenopus oocytes (pGEMHE) with functionally silent R505K; homodimer
T1 sequence (Q7T2C4 1-739 R505K): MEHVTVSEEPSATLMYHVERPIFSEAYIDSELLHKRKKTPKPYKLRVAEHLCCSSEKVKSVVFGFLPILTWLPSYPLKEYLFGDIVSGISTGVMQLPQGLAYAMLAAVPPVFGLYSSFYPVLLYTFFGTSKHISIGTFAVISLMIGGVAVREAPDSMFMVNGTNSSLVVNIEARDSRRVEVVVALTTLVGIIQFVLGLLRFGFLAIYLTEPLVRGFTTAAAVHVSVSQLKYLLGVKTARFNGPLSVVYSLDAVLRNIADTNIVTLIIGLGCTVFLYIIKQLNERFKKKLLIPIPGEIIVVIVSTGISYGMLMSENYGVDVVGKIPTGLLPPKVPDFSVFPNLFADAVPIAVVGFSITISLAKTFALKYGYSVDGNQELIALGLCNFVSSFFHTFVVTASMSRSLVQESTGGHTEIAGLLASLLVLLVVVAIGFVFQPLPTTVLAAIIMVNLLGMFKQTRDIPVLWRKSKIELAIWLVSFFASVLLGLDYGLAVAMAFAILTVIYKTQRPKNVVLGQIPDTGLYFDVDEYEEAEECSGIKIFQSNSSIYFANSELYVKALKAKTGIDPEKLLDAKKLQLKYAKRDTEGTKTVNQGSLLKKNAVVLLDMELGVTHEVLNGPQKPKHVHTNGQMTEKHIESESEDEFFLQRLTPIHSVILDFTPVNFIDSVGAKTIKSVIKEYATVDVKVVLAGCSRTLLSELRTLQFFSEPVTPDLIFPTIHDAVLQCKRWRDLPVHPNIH

zPres [2] = biological target: T2, zPres (Danio rerio, UniProt Q7T2C4, R505K); experiment: whole-cell patch clamp, non-linear capacitance, CHO cells; conditions: 10 mM extracellular salicylate; 160 mM intracellular Cl-; pH 7.4; zPres-GFP; inhibition
T2 construct: gene slc26a5; full length; C-terminal GFP fusion in CHO cells (pEGFP-N1); in Xenopus oocytes (pGEMHE) with functionally silent R505K; homodimer
T2 sequence (Q7T2C4 1-739 R505K): T1 sequence (Q7T2C4 1-739 R505K)

rPres = biological target: T3, rPres (Rattus norvegicus, UniProt Q9EPH0, R150C); experiment: voltage-clamp fluorometry, Xenopus oocytes; conditions: 10 mM extracellular salicylate; labelled at C150 with MTS-TAMRA; signal suppressed, V1/2 depolarized
T3 construct: gene Slc26a5; full length; C-terminal 6xHis tag in Xenopus oocytes (pGEMHE); homodimer
T3 sequence (Q9EPH0 1-744 R150C): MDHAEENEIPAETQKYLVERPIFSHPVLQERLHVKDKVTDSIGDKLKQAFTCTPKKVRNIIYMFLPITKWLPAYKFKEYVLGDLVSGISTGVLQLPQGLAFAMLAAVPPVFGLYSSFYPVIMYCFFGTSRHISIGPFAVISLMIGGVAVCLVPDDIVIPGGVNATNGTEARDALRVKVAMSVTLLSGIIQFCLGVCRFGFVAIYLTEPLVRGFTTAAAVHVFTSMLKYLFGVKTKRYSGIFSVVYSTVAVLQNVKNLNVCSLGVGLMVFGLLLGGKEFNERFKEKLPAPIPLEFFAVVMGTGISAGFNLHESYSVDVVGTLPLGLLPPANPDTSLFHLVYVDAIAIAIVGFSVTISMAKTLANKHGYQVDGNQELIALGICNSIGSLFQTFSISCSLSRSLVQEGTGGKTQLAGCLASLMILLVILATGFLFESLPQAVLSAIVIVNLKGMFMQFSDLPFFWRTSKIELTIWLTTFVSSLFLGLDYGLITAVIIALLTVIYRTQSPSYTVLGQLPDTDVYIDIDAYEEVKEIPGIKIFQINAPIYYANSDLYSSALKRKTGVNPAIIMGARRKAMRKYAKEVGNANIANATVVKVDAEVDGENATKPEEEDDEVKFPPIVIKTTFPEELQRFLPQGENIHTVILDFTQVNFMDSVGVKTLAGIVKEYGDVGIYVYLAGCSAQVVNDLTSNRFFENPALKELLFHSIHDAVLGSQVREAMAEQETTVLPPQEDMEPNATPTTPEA

| SMILES | whole-cell patch clamp, oxalate-chloride counter-transport current, CHO cells (zPres [1]) | whole-cell patch clamp, non-linear capacitance, CHO cells (zPres [2]) | voltage-clamp fluorometry, Xenopus oocytes (rPres) |
| --- | --- | --- | --- |
| O=C(O)C(=O)O [oxalate] | monitored as the electrogenic oxalate-chloride counter-transport current by whole-cell patch-clamping |  |  |
| O=C(O)c1ccccc1O [salicylate] |  | NLC recorded from cells expressing zPres was readily inhibited by salicylate | salicylate, suppressed the voltage-dependent fluorescence signals of rPres-R150C-TAMRA |
